Measured values taken from US20100010100A1, “DERMATOLOGICAL COMPOSITIONS WITH ANTI-AGING AND SKIN EVEN-TONING PROPERTIES” (priority 2008, published 2010).

System: MelanoDerm™ in vitro skin model (MEL-300B melanoderms)
Assay: In vitro skin model test (MelanoDerm skin-lightening, digital image quantification)
Assay type: cell-based
Details: for pixel density / lightening: 14 days; for pixel density: pixel content of untreated set at 1.00; for lightening: vs untreated
Procedure: The skin-lightening effect was validated on the in vitro skin model, the MelanoDerm™ carried out by MatTek using MEL-300B melanoderms. This model is very similar in structure and function to the natural skin and has the cell types relevant in the epidermis including the melanocytes, which are responsible for the synthesis of the main pigment melanin. Further information can be found, for example, in http://www.mattek.com/pages/in_vitro_basics. The study was carried out over a period of 14 days at two concentrations, 10 μM and 60 μM. 1% Kojic acid was the positive standard and untreated as negative control.
Digital image quantification was achieved by subtracting a standard background value from the pixel content of regions of identical size. The pixel content of untreated cells was set at 1.00. Treatment with topical 1% kojic acid as a positive control gave pixel density of 0.96 or 4% lightening. Treatment with Duroquinone gave pixel density of 0.82 or 18% lightening at a concentration of 10 μM and 0.60 or 40% lightening at a concentration of 60 μM. Treatment with 2,5,6-trimethyl-3-(4-(trifluoromethyl)phenyl)cyclohexa-2,5-diene-1,4-dione gave pixel density of […] or 34% lightening at a concentration of 60 μM.

SMILES | effectiveness relative to kojic acid positive standard (60 μM vs 1% kojic acid) | pixel density (60 μM) | lightening (60 μM) [%] | effectiveness relative to kojic acid positive standard (10 μM vs 1% kojic acid) | pixel density (10 μM) | lightening (10 μM) [%] | pixel density (topical 1% (positive control)) | lightening (topical 1% (positive control)) [%]
CC1=C(C)C(=O)C(c2ccc(C(F)(F)F)cc2)=C(C)C1=O [2,5,6-trimethyl-3-(4-(trifluoromethyl)phenyl)cyclohexa-2,5-diene-1,4-dione] | ten times as effective | 0.69 | 34 |  |  |  |  | 
CC1=C(C)C(=O)C(C)=C(C)C1=O [Duroquinone, 2,3,5,6-tetramethylcyclohexa-2,5-diene-1,4-dione] | ten times as effective | 0.60 | 40 | four and a half times as effective | 0.82 | 18 |  | 
O=c1cc(CO)occ1O [kojic acid, reference compound] |  |  |  |  |  |  | 0.96 | 4
